# In patent US11420969B2 (Exonate Limited, priority 2017, dated 2022):
# Tests used:
# SRPK1 = SRPK1 (Homo sapiens, UniProt Q96SB4); experiment: In vitro SRPK1 assay (Kinase-Glo); format: biochemical
# CYP1A2 = molecular target: T1, CYP1A2 (Homo sapiens, UniProt P05177); experiment: CYP inhibition assay, human liver microsomes, substrate tacrine; format: in vitro ADME; conditions: human liver microsomes, 10 min incubation, LC-MS/MS; read-out: CYP Inhibition Activity (IC50/nM) CYP1A2
# T1 construct: from tissue; host or cells: human liver microsomes
# T1 sequence (P05177 1-516): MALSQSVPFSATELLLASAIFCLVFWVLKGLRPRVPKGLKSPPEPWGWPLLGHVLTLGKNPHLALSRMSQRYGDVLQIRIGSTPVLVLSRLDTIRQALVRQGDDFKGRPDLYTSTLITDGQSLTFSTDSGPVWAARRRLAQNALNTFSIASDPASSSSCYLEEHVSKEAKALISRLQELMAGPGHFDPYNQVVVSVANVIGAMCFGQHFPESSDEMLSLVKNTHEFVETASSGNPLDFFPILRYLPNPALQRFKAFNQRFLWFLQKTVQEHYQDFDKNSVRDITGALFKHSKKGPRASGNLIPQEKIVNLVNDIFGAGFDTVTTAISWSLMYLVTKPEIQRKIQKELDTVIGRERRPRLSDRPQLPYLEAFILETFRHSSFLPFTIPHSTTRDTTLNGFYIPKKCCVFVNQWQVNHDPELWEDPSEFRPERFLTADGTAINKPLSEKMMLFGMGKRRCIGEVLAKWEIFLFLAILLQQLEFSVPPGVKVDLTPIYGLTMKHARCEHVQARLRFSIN
# Outline: (§1)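 Inhibition was determined with all substrates combined as a cocktail, a 20 min compound pre-incubation and a 10 min NADPH reaction at 37 °C. IC50 was calculated from LC-MS/MS data.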
# CYP2C9 = molecular target: T2, CYP2C9 (Homo sapiens, UniProt P11712); experiment: CYP inhibition assay, human liver microsomes, substrate diclofenac; format: in vitro ADME; conditions: human liver microsomes, 10 min incubation, LC-MS/MS; read-out: CYP Inhibition Activity (IC50/nM) CYP2C9
# T2 construct: from tissue; host or cells: human liver microsomes
# Outline: as §1
# CYP2C19 = molecular target: T3, CYP2C19 (Homo sapiens, UniProt P33261); experiment: CYP inhibition assay, human liver microsomes, substrate S-mephenytoin; format: in vitro ADME; conditions: human liver microsomes, 10 min incubation, LC-MS/MS; read-out: CYP Inhibition Activity (IC50/nM) CYP2C19
# T3 construct: from tissue; host or cells: human liver microsomes
# Outline: as §1
# CYP2D6 = molecular target: T4, CYP2D6 (Homo sapiens, UniProt P10635); experiment: biochemical; format: in vitro ADME
# T4 construct: from tissue; host or cells: human liver microsomes
# Outline: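 Human liver microsomes (0.253 mg/mL working stock) pre-incubated with compound and substrate pool at 37° C for 20 min. Reaction started with NADPH and run 10 min at 37° C, stopped with cold ACN. Metabolite analysed by LC-MS/MS; % inhibition and IC50 calculated versus inhibitor-free control.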
# CYP3A4 = molecular target: T5, CYP3A4 (Homo sapiens, UniProt P08684); experiment: CYP inhibition assay, human liver microsomes, substrate midazolam; format: in vitro ADME; conditions: human liver microsomes, 10 min incubation, LC-MS/MS; read-out: CYP Inhibition Activity (IC50/nM) CYP3A4
# T5 construct: from tissue; host or cells: human liver microsomes
# Outline: as §1
# Chain of SRPK1 (Q96SB4 whole entry, species assumed): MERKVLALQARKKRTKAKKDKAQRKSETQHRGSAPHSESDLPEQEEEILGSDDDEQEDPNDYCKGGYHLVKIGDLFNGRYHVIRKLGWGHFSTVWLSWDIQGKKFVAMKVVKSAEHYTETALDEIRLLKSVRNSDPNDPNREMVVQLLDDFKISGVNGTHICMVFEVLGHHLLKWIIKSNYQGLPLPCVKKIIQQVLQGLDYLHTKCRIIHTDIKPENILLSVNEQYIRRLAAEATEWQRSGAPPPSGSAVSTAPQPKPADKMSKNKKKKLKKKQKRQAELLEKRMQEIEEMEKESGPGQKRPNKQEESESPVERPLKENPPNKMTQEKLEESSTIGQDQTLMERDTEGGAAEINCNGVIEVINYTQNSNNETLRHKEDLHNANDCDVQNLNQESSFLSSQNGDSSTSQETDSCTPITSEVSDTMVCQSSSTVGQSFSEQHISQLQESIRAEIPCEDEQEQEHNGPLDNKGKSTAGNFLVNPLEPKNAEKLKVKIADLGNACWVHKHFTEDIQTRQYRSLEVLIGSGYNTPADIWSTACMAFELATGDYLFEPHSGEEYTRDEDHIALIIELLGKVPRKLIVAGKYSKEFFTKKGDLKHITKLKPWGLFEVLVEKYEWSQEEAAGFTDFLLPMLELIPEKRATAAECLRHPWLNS
# T4 sequence (P10635 whole entry): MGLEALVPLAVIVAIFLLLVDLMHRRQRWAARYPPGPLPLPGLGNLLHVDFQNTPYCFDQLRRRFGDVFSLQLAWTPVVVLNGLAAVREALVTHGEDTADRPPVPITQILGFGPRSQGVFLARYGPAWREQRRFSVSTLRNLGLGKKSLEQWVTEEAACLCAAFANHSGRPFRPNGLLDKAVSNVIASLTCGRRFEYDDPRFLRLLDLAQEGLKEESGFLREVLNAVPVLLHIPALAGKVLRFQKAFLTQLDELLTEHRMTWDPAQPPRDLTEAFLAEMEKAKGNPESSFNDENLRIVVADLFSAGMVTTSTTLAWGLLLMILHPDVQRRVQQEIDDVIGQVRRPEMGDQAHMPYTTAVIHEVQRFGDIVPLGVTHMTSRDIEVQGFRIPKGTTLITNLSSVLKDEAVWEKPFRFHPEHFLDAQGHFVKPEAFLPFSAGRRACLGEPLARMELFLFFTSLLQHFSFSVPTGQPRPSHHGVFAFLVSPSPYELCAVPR
# T5 sequence (P08684 whole entry): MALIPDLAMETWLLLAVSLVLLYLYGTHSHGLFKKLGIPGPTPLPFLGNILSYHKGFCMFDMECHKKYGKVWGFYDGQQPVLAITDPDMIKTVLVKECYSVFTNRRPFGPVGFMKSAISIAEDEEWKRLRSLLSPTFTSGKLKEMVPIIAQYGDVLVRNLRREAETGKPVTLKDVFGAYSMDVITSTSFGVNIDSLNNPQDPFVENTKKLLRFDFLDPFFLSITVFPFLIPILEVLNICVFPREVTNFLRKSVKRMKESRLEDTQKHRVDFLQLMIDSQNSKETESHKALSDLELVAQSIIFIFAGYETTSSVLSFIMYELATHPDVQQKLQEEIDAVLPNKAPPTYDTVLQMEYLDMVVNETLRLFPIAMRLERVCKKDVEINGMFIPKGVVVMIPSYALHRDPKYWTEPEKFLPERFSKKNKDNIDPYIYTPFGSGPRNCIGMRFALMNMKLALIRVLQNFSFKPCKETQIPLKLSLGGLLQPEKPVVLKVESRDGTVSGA
# T2 sequence (P11712 whole entry): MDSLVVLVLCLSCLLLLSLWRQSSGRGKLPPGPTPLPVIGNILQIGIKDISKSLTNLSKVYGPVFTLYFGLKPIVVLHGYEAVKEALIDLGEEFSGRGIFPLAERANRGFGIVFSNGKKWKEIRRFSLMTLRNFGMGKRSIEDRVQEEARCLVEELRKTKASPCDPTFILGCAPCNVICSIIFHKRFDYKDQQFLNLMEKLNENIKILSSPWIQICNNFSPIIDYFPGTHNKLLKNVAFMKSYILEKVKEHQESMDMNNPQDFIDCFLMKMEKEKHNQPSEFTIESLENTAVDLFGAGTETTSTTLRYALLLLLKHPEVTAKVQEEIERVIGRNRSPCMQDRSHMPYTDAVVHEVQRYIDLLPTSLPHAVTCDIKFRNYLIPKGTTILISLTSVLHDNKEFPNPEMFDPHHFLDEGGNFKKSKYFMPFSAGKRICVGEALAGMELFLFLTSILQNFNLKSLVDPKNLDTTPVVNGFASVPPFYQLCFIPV
# T3 sequence (P33261 whole entry): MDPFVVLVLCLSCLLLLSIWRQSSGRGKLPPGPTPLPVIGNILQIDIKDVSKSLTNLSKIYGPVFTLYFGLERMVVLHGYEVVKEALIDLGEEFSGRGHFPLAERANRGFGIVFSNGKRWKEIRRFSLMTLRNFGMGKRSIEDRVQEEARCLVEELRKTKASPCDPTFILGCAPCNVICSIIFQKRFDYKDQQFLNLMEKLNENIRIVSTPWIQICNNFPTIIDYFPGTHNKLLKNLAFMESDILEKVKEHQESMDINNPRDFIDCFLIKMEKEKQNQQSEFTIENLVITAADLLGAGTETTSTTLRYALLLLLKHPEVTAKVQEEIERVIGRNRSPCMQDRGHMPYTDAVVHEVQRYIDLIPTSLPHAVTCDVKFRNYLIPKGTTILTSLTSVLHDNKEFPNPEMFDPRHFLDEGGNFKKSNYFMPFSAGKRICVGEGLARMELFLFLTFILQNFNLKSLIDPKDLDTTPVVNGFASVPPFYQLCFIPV
SMILES,IC50 (SRPK1) [nM],IC50 (CYP1A2) [nM],IC50 (CYP2C9) [nM],IC50 (CYP2C19) [nM],IC50 (CYP2D6) [µM],IC50 (CYP3A4) [nM]
"CC1(O)CCN(c2ccc(OC(F)(F)F)cc2NC(=O)c2ccc(C3CCOCC3)o2)CC1 [Example 16, N-(2-(4-hydroxy-4-methylpiperidin-1-yl)-5-(trifluoromethoxy)phenyl)-5-(tetrahydro-2H-pyran-4-yl)furan-2-carboxamide]",16,26700,5690,9550,10.5,27300
"CC1(CN)CCN(c2ccc(C(F)(F)F)cc2NC(=O)c2ccc(-c3ccncc3)o2)CC1 [Example 78, N-(2-(4-(aminomethyl)-4-methylpiperidin-1-yl)-5-(trifluoromethyl)phenyl)-5-(pyridin-4-yl)furan-2-carboxamide]",9.1,> 30000,9130,20000,1.29,8320
"CN1CCC2(CCN(c3ccc(C(F)(F)F)cc3NC(=O)c3ccc(C4CCOCC4)o3)CC2)C1=O [Example 100, N-(2-(2-methyl-1-oxo-2,8-diazaspiro[4.5]decan-8-yl)-5-(trifluoromethyl)phenyl)-5-(tetrahydro-2H-pyran-4-yl)furan-2-carboxamide]",2.6,> 30000,7300,3200,13.8,2700
"O=C(Nc1cc(C2CC2)ccc1N1CCCC(O)CC1)c1ccc(C2CCOCC2)o1 (racemic) [Example 49, N-(5-cyclopropyl-2-(4-hydroxyazepan-1-yl)phenyl)-5-(tetrahydro-2H-pyran-4-yl)furan-2-carboxamide]",5.2,7340,7250,6730,21.2,17200
"COc1ccc(N2CCC(C)(C(=O)N(C)C)CC2)c(NC(=O)c2ccc(C3CCOCC3)o2)c1 [Example 85, 1-(4-methoxy-2-(5-(tetrahydro-2H-pyran-4-yl)furan-2-carboxamido)phenyl)-N,N,4-trimethyl-piperidine-4-carboxamide]",43,> 30000,800,21700,> 30,20700
"Cc1ccc(N2CCC(O)CC2)c(NC(=O)c2ccc(C3CCOCC3)o2)c1 [Example 36, N-(2-(4-hydroxypiperidin-1-yl)-5-methylphenyl)-5-(tetrahydro-2H-pyran-4-yl)furan-2-carboxamide]",3.7,6590,4940,7500,21.5,> 30000
"CC1(O)CCCN(c2ccc(Cl)cc2NC(=O)c2ccc(C3CCOCC3)o2)CC1 (racemic) [Example 41, N-(5-chloro-2-(4-hydroxy-4-methylazepan-1-yl)phenyl)-5-(tetrahydro-2H-pyran-4-yl)furan-2-carboxamide]",3,2660,810,370,0.38,2610
"CC1CCN(c2ccc(C(F)(F)F)cc2NC(=O)c2ccc(-c3ccncc3)o2)CC1 [Example 34, N-(2-(4-methylpiperidin-1-yl)-5-(trifluoromethyl)-phenyl)-5-(pyridin-4-yl)furan-2-carboxamide]",422,4000,5600,4000,5.5,7300
"Cc1ccc(N2CCC(C)(O)C2)c(NC(=O)c2ccc(C3CCOCC3)o2)c1 (racemic) [Example 58, N-(2-(3-hydroxy-3-methylpyrrolidin-1-yl)-5-methylphenyl)-5-(tetrahydro-2H-pyran-4-yl)-furan-2-carboxamide]",204,> 30000,> 30000,> 30000,> 30,23200
"COC1(C)CCN(c2ccc(C(F)(F)F)cc2NC(=O)c2ccc(C3CCOCC3)o2)CC1 [Example 18, N-(2-(4-methoxy-4-methylpiperidin-1-yl)-5-(trifluoromethyl)-phenyl)-5-(tetrahydro-2H-pyran-4-yl)furan-2-carboxamide]",54,> 30000,5160,4910,15.8,9800
"O=C(Nc1cc(C(F)(F)F)ccc1N1CCC(O)(C2CC2)CC1)c1ccc(C2CCOCC2)o1 [Example 21, N-(2-(4-cyclopropyl-4-hydroxypiperidin-1-yl)-5-(trifluoromethyl)-phenyl)-5-(tetrahydro-2H-pyran-4-yl)furan-2-carboxamide]",9,> 30000,6350,6140,7.14,20900
"CC1(N)CCN(c2ccc(C(F)(F)F)cc2NC(=O)c2ccc(-c3ccncc3)o2)CC1 [Example 102, N-(2-(4-amino-4-methylpiperidin-1-yl)-5-(trifluoromethyl)phenyl)-5-(pyridin-4-yl)furan-2-carboxamide]",44.6,> 30000,14100,9400,0.1,3900
"CC1(O)CCN(c2ccc(C(F)(F)F)cc2NC(=O)c2ccc(-c3ccncc3)o2)C1 (racemic) [Example 55, N-(2-(3-hydroxy-3-methylpyrrolidin-1-yl)-5-(trifluoromethyl)-phenyl)-5-(pyridin-4-yl)furan-2-carboxamide]",26,13000,> 30000,22900,> 30,> 30000
"Cc1ccc(N2CCC(C)(C)CC2)c(NC(=O)c2ccc(C3CCOCC3)o2)c1 [Example 63, N-(2-(4,4-dimethylpiperidin-1-yl)-5-methylphenyl)-5-(tetrahydro-2H-pyran-4-yl)furan-2-carboxamide]",25,> 30000,14200,> 30000,> 30,> 30000
"CC1(O)CCCN(c2ccc(C(F)(F)F)cc2NC(=O)c2ccc(-c3ccncc3)o2)CC1 (racemic) [Example 37, N-(2-(4-hydroxy-4-methylazepan-1-yl)-5-(trifluoromethyl)phenyl)-5-(pyridin-4-yl)furan-2-carboxamide]",17,24100,610,1230,0.24,960
"Cc1ccc(N2CCC(C)(CN(C)C)CC2)c(NC(=O)c2ccc(C3CCOCC3)o2)c1 [Example 94, N-(2-(4-((dimethylamino)methyl)-4-methyl-piperidin-1-yl)-5-methylphenyl)-5-(tetrahydro-2H-pyran-4-yl)furan-2-carboxamide]",167,> 30000,17200,25100,0.3,23100
"O=C(Nc1cc(C(F)(F)F)ccc1N1CCC(O)CC1)c1ccc(C2CCOCC2)o1 [Example 33, N-(2-(4-hydroxypiperidin-1-yl)-5-(trifluoromethyl)-phenyl)-5-(tetrahydro-2H-pyran-4-yl)furan-2-carboxamide]",0.9,10000,7600,8100,15.2,> 30000
